Laboratory results from publication PMC3914206.

Assays:
Type in all cases: binding
Conditions in all cases: Compound Concentration 10 µM
panel of 442 kinases [1] = molecular target: T1, panel of 442 kinases (Homo sapiens, UniProt P78368)
T1 construct: purchased KINOMEscan
Text: (§1) We assessed the selectivity of members of this scaffold using the KINOMEscan methodology across a near comprehensive panel of 442 kinases [[18,27]].

panel of 442 kinases [2] = molecular target: T2, panel of 442 kinases (Homo sapiens, UniProt P06241)
T2 construct: purchased KINOMEscan
Text: as §1

panel of 442 kinases [3] = molecular target: T3, panel of 442 kinases (Homo sapiens, UniProt Q13131)
T3 construct: purchased KINOMEscan
Text: as §1

panel of 442 kinases [4] = molecular target: T4, panel of 442 kinases (Homo sapiens, UniProt P27448)
T4 construct: purchased KINOMEscan
Text: as §1

T1 sequence (P78368 whole entry): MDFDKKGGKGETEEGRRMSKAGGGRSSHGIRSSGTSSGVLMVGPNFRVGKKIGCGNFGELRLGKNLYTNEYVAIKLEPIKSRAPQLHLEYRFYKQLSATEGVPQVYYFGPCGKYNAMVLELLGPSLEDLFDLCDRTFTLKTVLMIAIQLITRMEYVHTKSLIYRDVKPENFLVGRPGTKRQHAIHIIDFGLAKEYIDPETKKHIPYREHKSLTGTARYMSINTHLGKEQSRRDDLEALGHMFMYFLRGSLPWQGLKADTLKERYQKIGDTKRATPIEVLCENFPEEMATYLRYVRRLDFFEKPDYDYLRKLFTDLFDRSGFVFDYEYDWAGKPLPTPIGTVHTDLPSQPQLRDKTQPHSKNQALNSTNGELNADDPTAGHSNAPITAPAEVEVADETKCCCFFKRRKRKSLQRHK
T4 sequence (P27448 whole entry): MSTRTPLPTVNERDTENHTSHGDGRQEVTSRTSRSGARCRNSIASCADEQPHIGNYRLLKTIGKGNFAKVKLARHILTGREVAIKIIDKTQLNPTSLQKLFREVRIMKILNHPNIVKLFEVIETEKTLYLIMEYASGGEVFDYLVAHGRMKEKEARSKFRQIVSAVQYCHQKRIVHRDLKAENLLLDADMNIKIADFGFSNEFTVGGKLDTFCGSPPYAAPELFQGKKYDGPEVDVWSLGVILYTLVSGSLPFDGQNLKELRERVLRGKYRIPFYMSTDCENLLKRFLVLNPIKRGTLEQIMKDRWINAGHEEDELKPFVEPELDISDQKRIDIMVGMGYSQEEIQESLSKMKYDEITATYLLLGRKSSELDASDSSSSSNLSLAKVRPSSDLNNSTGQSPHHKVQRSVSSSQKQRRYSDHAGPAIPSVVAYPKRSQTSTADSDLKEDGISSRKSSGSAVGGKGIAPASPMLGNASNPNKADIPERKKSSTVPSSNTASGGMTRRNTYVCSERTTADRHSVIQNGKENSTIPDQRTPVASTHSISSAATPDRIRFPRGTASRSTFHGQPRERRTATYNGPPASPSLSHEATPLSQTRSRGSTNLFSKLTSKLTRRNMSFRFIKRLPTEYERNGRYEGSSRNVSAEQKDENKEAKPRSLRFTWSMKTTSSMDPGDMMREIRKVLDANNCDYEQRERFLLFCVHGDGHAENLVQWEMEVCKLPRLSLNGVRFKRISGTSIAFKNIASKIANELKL
T3 sequence (Q13131 whole entry): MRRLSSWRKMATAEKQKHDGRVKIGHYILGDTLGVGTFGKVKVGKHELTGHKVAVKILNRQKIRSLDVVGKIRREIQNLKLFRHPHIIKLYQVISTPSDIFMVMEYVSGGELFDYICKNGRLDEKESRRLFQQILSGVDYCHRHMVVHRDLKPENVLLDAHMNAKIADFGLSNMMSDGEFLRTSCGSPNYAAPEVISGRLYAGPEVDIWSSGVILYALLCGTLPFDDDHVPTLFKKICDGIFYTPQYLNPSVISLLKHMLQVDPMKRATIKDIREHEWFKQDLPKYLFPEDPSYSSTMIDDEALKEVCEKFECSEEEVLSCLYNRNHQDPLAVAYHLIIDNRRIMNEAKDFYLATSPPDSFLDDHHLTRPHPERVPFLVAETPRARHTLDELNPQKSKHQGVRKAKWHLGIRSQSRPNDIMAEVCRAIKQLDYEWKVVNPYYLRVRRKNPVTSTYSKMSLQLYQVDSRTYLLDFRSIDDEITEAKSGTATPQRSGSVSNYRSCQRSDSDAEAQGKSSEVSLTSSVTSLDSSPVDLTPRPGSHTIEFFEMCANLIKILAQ
T2 sequence (P06241 whole entry): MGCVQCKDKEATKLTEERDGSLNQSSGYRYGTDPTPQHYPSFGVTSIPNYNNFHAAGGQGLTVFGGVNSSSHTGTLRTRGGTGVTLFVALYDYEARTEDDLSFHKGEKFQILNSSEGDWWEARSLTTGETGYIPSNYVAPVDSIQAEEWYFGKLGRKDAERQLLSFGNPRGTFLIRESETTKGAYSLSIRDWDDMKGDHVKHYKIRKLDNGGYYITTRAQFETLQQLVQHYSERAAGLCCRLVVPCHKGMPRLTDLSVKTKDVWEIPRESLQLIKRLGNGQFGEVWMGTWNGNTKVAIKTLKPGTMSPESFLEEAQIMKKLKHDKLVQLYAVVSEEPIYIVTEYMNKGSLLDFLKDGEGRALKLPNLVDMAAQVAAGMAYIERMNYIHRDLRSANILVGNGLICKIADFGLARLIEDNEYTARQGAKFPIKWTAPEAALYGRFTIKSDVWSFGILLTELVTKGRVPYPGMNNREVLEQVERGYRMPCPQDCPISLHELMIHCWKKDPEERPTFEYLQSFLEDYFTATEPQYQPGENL

| SMILES | KINOMEscan: CSNK1G2 (panel of 442 kinases [1]) | KINOMEscan: FYN (panel of 442 kinases [2]) | KINOMEscan: AMPK-alpha1 (panel of 442 kinases [3]) | KINOMEscan: MARK3 (panel of 442 kinases [4]) |
| --- | --- | --- | --- | --- |
| COc1cc(C(=O)N2CCC(N3CCN(C)CC3)CC2)ccc1Nc1ncc2c(n1)N(C)c1ccccc1C(=O)N2C [15 (LRRK2-IN-1)] | 100 | 100 | 51 | 98 |
| CCOc1cc(C(=O)N2CCC(N3CCN(C)CC3)CC2)ccc1Nc1ncc2c(n1)N(C1CCCC1)c1ccccc1C(=O)N2C [Compound 26] | 96 | 78 | 100 | 100 |
| COc1cc(C(=O)N2CCC(N3CCN(C)CC3)CC2)ccc1Nc1ncc2c(n1)N1CCc3cccc(c31)C(=O)N2C [Compound 24] |  | 82 |  |  |
| COc1cc(C(=O)N2CCC(N3CCN(C)CC3)CC2)ccc1Nc1ncc2c(n1)N(C1CCCC1)c1ccccc1C(=O)N2C [Compound 25, 11-cyclopentyl-2-((2-methoxy-4-(4-(4-methylpiperazin-1-yl)piperidine-1-carbonyl)phenyl)amino)-5-methyl-5H-benzo[e]pyrimido[5,4-b][1,4]diazepin-6(11H)-one] | 91 | 86 | 48 | 100 |
